Data published in patent US10544104B2, “Compositions and methods for treating toxoplasmosis, cryptosporidiosis, and other apicomplexan protozoan related diseases” (University of Washington through its Center for …, priority 2010, dated 2020).
One block for each molecule: values may come before it.

Assays:
TgCDPK1 = TgCDPK1 (Toxoplasma gondii, UniProt Q9BJF5); type: biochemical
in vitro [1] = details: human, SF539 glioma-derived cells
in vitro [2] = details: human, CRL8155 human lymphocyte cells
in vitro [3] = details: human, HL-60 human promyelocytic leukemia cells
in vitro [4] = details: human, HCC2998 (HC 2998) colorectal carcinoma cells
P. falciparum = test: microbe, parasite or virus in culture; details: Plasmodium falciparum, read-out: Proliferation Blocking P. falciparum (EC50, μM)
human fibroblast = test: Fibroblast cytotoxicity / replication (Alamar blue); type: cell-based; details: concentration at which toxicity (T) was observed

Chain of TgCDPK1 (Q9BJF5 1-507): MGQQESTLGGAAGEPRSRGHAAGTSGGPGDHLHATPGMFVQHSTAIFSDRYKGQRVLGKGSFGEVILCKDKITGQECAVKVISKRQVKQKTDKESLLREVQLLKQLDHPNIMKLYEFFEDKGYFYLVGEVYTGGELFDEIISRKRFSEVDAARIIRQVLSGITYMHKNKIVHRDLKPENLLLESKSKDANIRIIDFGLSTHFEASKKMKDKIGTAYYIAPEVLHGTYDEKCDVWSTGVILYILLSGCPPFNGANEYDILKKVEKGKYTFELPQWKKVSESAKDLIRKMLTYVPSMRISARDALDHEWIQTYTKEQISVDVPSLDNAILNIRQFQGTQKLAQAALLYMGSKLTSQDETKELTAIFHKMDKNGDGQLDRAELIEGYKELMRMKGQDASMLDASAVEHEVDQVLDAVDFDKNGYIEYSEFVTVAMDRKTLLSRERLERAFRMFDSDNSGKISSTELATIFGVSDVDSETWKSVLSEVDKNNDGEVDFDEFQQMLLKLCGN

SMILES: [Ca+2].[Cl-].[Cl-] [CaCl2]
free CaCl2 at maximal activity (TgCDPK1): approximately 18 μM

SMILES: C#CCn1nc(Cc2cccc3ccccc23)c2c(N)ncnc21 [Compound 5b, 3-(naphthalen-1-ylmethyl)-1-(prop-2-ynyl)-1H-pyrazolo[3,4-d]pyrimidin-4-amine]
IC50 (TgCDPK1): 0.99 µM

GI50 (in vitro [1]): > 10 µM
GI50 (in vitro [2]): > 10 µM
GI50 (in vitro [3]): > 10 µM
GI50 (in vitro [4]): > 10 µM
SMILES: CC(C)(C)n1nc(Cc2cccc3ccccc23)c2c(N)ncnc21 [Compound 5d, 1-tert-butyl-3-(naphthalen-1-ylmethyl)-1H-pyrazolo[3,4-d]pyrimidin-4-amine]

GI50 (in vitro [1]): > 10 µM
GI50 (in vitro [2]): > 10 µM
GI50 (in vitro [3]): > 10 µM
GI50 (in vitro [4]): > 10 µM
SMILES: Nc1ncnc2c1c(Cc1cccc3ccccc13)nn2CC1CCNCC1 [Compound 5h, 3-(naphthalen-1-ylmethyl)-1-(piperidin-4-ylmethyl)-1H-pyrazolo[3,4-d]pyrimidin-4-amine]

SMILES: CC(C)n1nc(-c2ccc(Cl)cc2)c2c(N)ncnc21 [Compound 7a, 3-(4-chlorophenyl)-1-isopropyl-1H-pyrazolo[3,4-d]pyrimidin-4-amine]
selectivity TgCDPK1 versus CpCDPK1 (in words) (TgCDPK1): more potent against TgCDPK1 than CpCDPK1

SMILES: CSc1cccc(-c2nn(C(C)C)c3ncnc(N)c23)c1 [Compound 7ab, 1-isopropyl-3-(3-(methylthio)phenyl)-1H-pyrazolo[3,4-d]pyrimidin-4-amine]
selectivity TgCDPK1 versus CpCDPK1 (in words) (TgCDPK1): more potent against TgCDPK1 than CpCDPK1

SMILES: CC(C)n1nc(-c2cccc(Cl)c2)c2c(N)ncnc21 [Compound 7b, 3-(3-chlorophenyl)-1-isopropyl-1H-pyrazolo[3,4-d]pyrimidin-4-amine]
selectivity TgCDPK1 versus CpCDPK1 (in words) (TgCDPK1): more potent against TgCDPK1 than CpCDPK1

SMILES: CC(C)n1nc(-c2ccc(Cl)c(Cl)c2)c2c(N)ncnc21 [Compound 7c, 3-(3,4-dichlorophenyl)-1-isopropyl-1H-pyrazolo[3,4-d]pyrimidin-4-amine]
inhibition of TgCDPK1 (in words) (TgCDPK1): potent against both enzymes

SMILES: CC(C)c1ccc(-c2nn(C(C)C)c3ncnc(N)c23)cc1 [Compound 7d, 1-isopropyl-3-(4-isopropylphenyl)-1H-pyrazolo[3,4-d]pyrimidin-4-amine]
selectivity TgCDPK1 versus CpCDPK1 (in words) (TgCDPK1): more potent against TgCDPK1 than CpCDPK1

SMILES: Cc1cc(-c2nn(C(C)C)c3ncnc(N)c23)ccc1F [Compound 7i, 3-(4-fluoro-3-methylphenyl)-1-isopropyl-1H-pyrazolo[3,4-d]pyrimidin-4-amine]
inhibition of TgCDPK1 (in words) (TgCDPK1): potent against both enzymes

SMILES: COc1ccc(-c2nn(C(C)C)c3ncnc(N)c23)cc1OC [Compound 7k, 3-(3,4-dimethoxyphenyl)-1-isopropyl-1H-pyrazolo[3,4-d]pyrimidin-4-amine]
inhibition of TgCDPK1 (in words) (TgCDPK1): potent against both enzymes

SMILES: COc1cc(-c2nn(C(C)C)c3ncnc(N)c23)cc(OC)c1OC [Compound 7l, 1-isopropyl-3-(3,4,5-trimethoxyphenyl)-1H-pyrazolo[3,4-d]pyrimidin-4-amine]
selectivity TgCDPK1 versus CpCDPK1 (in words) (TgCDPK1): equipotent or slightly selective for CpCDPK1

SMILES: COc1ccc(-c2nn(C(C)C)c3ncnc(N)c23)cc1C [Compound 7m, 1-isopropyl-3-(4-methoxy-3-methylphenyl)-1H-pyrazolo[3,4-d]pyrimidin-4-amine]
inhibition of TgCDPK1 (in words) (TgCDPK1): potent against both enzymes

GI50 (in vitro [1]): > 10 µM
GI50 (in vitro [2]): > 10 µM
GI50 (in vitro [3]): > 10 µM
GI50 (in vitro [4]): ~10 µM
SMILES: CC(C)n1nc(-c2ccc3ccccc3c2)c2c(N)ncnc21 [Compound 7p, 1-isopropyl-3-(naphthalen-2-yl)-1H-pyrazolo[3,4-d]pyrimidin-4-amine]

GI50 (in vitro [1]): > 10 µM
GI50 (in vitro [2]): > 10 µM
GI50 (in vitro [3]): > 10 µM
GI50 (in vitro [4]): > 10 µM
SMILES: COc1ccc2cc(-c3nn(C(C)C)c4ncnc(N)c34)ccc2c1 [Compound 7q, 1-isopropyl-3-(6-methoxynaphthalen-2-yl)-1H-pyrazolo[3,4-d]pyrimidin-4-amine]
EC50 (P. falciparum): > 10 µM

SMILES: CCOc1ccc2cc(-c3nn(C(C)C)c4ncnc(N)c34)ccc2c1 [Compound 7r, 3-(6-ethoxynaphthalen-2-yl)-1-isopropyl-1H-pyrazolo[3,4-d]pyrimidin-4-amine]
EC50 (P. falciparum): > 50 µM

SMILES: CCCOc1ccc2cc(-c3nn(CC4CCNCC4)c4ncnc(N)c34)ccc2c1 [Compound 33, 1-(piperidin-4-ylmethyl)-3-(6-propoxynaphthalen-2-yl)-1H-pyrazolo[3,4-d]pyrimidin-4-amine]
Observed HFF Toxicity (T at concentration) (human fibroblast): T at 100 μM

SMILES: Nc1ncnc2c1c(-c1ccc3cc(OCc4ccccc4)ccc3c1)nn2CC1CCNCC1 [Compound 34, 3-(6-(benzyloxy)naphthalen-2-yl)-1-(piperidin-4-ylmethyl)-1H-pyrazolo[3,4-d]pyrimidin-4-amine]
Observed HFF Toxicity (T at concentration) (human fibroblast): T at 100 μM

SMILES: C=CCOc1ccc2cc(-c3nn(CC4CCNCC4)c4ncnc(N)c34)ccc2c1 [Compound 36, 3-(6-(allyloxy)naphthalen-2-yl)-1-(piperidin-4-ylmethyl)-1H-pyrazolo[3,4-d]pyrimidin-4-amine]
Observed HFF Toxicity (T at concentration) (human fibroblast): T at 100 μM

SMILES: Nc1ncnc2c1c(-c1ccc3cc(OCc4ccccc4Cl)ccc3c1)nn2CC1CCNCC1 [Compound 37, 3-(6-(2-chlorobenzyloxy)naphthalen-2-yl)-1-(piperidin-4-ylmethyl)-1H-pyrazolo[3,4-d]pyrimidin-4-amine]
Observed HFF Toxicity (T at concentration) (human fibroblast): T at 100 μM

SMILES: Nc1ncnc2c1c(-c1ccc3cc(OCc4cccc(Cl)c4)ccc3c1)nn2CC1CCNCC1 [Compound 38, 3-(6-(3-chlorobenzyloxy)naphthalen-2-yl)-1-(piperidin-4-ylmethyl)-1H-pyrazolo[3,4-d]pyrimidin-4-amine]
Observed HFF Toxicity (T at concentration) (human fibroblast): T at 100 μM

SMILES: CC(C)n1nc(-c2ccc3cc(OCc4ccccc4)ccc3c2)c2c(N)ncnc21 [Compound 40, 3-(6-(benzyloxy)naphthalen-2-yl)-1-isopropyl-1H-pyrazolo[3,4-d]pyrimidin-4-amine]
Observed HFF Toxicity (T at concentration) (human fibroblast): T at 100 μM

SMILES: C=CCOc1ccc2cc(-c3nn(C(C)C)c4ncnc(N)c34)ccc2c1 [Compound 41, 3-(6-(allyloxy)naphthalen-2-yl)-1-isopropyl-1H-pyrazolo[3,4-d]pyrimidin-4-amine]
Observed HFF Toxicity (T at concentration) (human fibroblast): T at 100 μM

SMILES: CCCCOc1ccc2cc(-c3nn(C(C)C)c4ncnc(N)c34)ccc2c1 [Compound 42, 3-(6-butoxynaphthalen-2-yl)-1-isopropyl-1H-pyrazolo[3,4-d]pyrimidin-4-amine]
Observed HFF Toxicity (T at concentration) (human fibroblast): T at 100 μM

SMILES: CC(C)COc1ccc2cc(-c3nn(CC4CCNCC4)c4ncnc(N)c34)ccc2c1 [Compound 44, 3-(6-isobutoxynaphthalen-2-yl)-1-(piperidin-4-ylmethyl)-1H-pyrazolo[3,4-d]pyrimidin-4-amine]
Observed HFF Toxicity (T at concentration) (human fibroblast): T at 100 μM

SMILES: CC(C)(C)C(=O)Nc1ccc(-c2nn(C(C)(C)C)c3ncnc(N)c23)cc1 [Compound 60, N-(4-(4-amino-1-tert-butyl-1H-pyrazolo[3,4-d]pyrimidin-3-yl)phenyl)pivalamide]
EC50 (P. falciparum): > 10 µM

SMILES: CCCC(=O)Nc1ccc(-c2nn(C(C)(C)C)c3ncnc(N)c23)cc1 [Compound 61, N-(4-(4-amino-1-tert-butyl-1H-pyrazolo[3,4-d]pyrimidin-3-yl)phenyl)butyramide]
EC50 (P. falciparum): 7 µM

SMILES: CC(C)CC(=O)Nc1ccc(-c2nn(C(C)(C)C)c3ncnc(N)c23)cc1 [Compound 62, N-(4-(4-amino-1-tert-butyl-1H-pyrazolo[3,4-d]pyrimidin-3-yl)phenyl)-3-methylbutanamide]
EC50 (P. falciparum): > 10 µM

SMILES: CC(C)(C)n1nc(-c2ccc(NC(=O)C3CCCC3)cc2)c2c(N)ncnc21 [Compound 63, N-(4-(4-amino-1-tert-butyl-1H-pyrazolo[3,4-d]pyrimidin-3-yl)phenyl)cyclopentanecarboxamide]
EC50 (P. falciparum): > 10 µM

SMILES: CCOc1ccc2cc(-c3nc(C(C)(C)C)n4ccnc(N)c34)ccc2c1 [Compound 69, 3-tert-butyl-1-(6-ethoxynaphthalen-2-yl)imidazo[1,5-a]pyrazin-8-amine]
Observed HFF Toxicity (T at concentration) (human fibroblast): T at 25 μM

SMILES: Nc1ncnc2c1c(-c1ccc3oc(-c4ccccc4)nc3c1)nn2CC1CCNCC1 [Compound 120]
Observed HFF Toxicity (T at concentration) (human fibroblast): T at 25 μM

SMILES: [Ca+2] [calcium]
EC50 (TgCDPK1; read-out: calcium concentration giving 50% of TgCDPK1 kinase activity): 4.7 µM
